Measurements reported in patent US8722681B2, “N-sulfonyl thiazolylpiperazine derivatives and related N-sulfonyl heterocyclic derivatives for the treatment of neuro degenerative diseases” (NV reMYND, priority 2007, dated 2014).

System: M17-SYNwt cells
Assay: α-synuclein cytotoxicity assay (LDH leakage from paraquat-treated M17-SYNwt cells)
Type: cell-based, human
Details: for EC50: Homo sapiens, M17-SYNwt cells, paraquat 32 mM, 40 hours, LDH activity; for % I (percentage inhibition) / % inh. (percentage inhibition): inhibition of synuclein toxicity at most effective concentration relative to untreated paraquat cells
Source text: An α-synuclein expression plasmid was constructed by sub-cloning the NcoI/XhoI fragment from 212T-SYN(WT) (Griffioen et al., Biochem Biophys Acta (2006) 1762(3):312-318) containing the cDNA of human wild type α-synuclein correspondingly into a standard mammalian expression vector pcDNA3.1 resulting in plasmid pcDNA3.1-SYNwt. Plasmid pcDNA3.1 and pcDNA3.1-SYNwt were transfected to human neuroblastoma cells (ATCC No. CRL-2267) and independent clonal lines with the plasmids stably integrated into the genome were selected. […] Over-expression of α-synuclein in M17-SYNwt cell lines was confirmed by Western analysis.
Due to the high levels of α-synuclein M17-SYNwt cells are exquisitely sensitivity to paraquat, a well-known risk factor of synuclein-dependent neuronal degeneration. In degenerated or dead cells lactate dehydrogenase (LDH) is leaked out of the cells into the extracellular environment due to a loss of plasma-membrane integrity. This principle was used to determine cytotoxicity by quantifying the level of leaked LDH into the growth medium.
The detailed method for determining α-synuclein cytotoxicity was as follows: From appropriate precultures of M17 and M17-SYN cells were seeded at 50000 cells/cm^2 in Optimem Reduced Serum without phenol red (InVitrogen, Cat. 31985-047) supplemented with 5% fetal calf serum, 1 mM sodium pyruvate, 1×non-essential amino acids, 500 μg/ml G418 0.5×antibiotic/antimycotic. After 3 hours of incubation at 37° C./5% CO2 paraquat was added to the cells (final concentration of 32 mM), together with the test compound and the cells were further incubated for 40 hours. Subsequently, LDH activity was determined using Promega Cytotox 96 Non-Radioactive cytotoxicity assay, (Cat. G1780) according the supplier's instructions.
This α-synuclein expressing neuroblastoma cells made it possible to assess the ability of novel compounds to counteract α-synuclein cytotoxicity. […] Since this method monitors leaked LDH from degenerated or dead cells only non-toxic compounds will be identified as active inhibitors of α-synuclein-mediated cytotoxicity. Lack of toxicity is an important characteristic for compounds to be used as a medicament to patients in need. A compound was considered to be active in this test when it inhibits α-synuclein cytotoxicity by more than 25% relative to untreated M17-SYNwt cells at a concentration of 20 μg/mL or lower. In the experiments, the control group consisted of M17-SYNwt cells treated with DMSO, the untreated paraquat group consisted of M17-SYNwt cells treated with paraquat and DMSO, and the treated paraquat group consisted of M17-SYNwt cells treated with paraquat and the test compound dissolved in DMSO.
Percent inhibition was calculated as the synuclein toxicity inhibition by the compound in treated paraquat cells, relative to the synuclein cytotoxicity in untreated paraquat cells.
The compounds from table 1 were screened for activity using the α-synuclein cytotoxicity assay as described above. Dose responses were carried out on all compounds found to be active (10 point curves in duplicate).

What does the source list for COc1ccc(S(=O)(=O)N2CCN(c3nc(-c4ccc(F)cc4)cs3)CC2)cc1 [Compound 1, 1-[4-(4-fluorophenyl)-1,3-thiazol-2-yl]-4-[(4-methoxyphenyl)-sulfonyl]-piperazine]?
EC50 (Table 1): 24 nM; % I (percentage inhibition) (Table 1): 100%

Cc1ccc(S(=O)(=O)N2CCN(c3nc(-c4ccc(F)cc4)cs3)CC2)cc1 [Compound 2] was tested. Which EC50 (Table 1) did it give?
The EC50 was 160 nM.

What about the “% I (percentage inhibition)” value (Table 1) of the same molecule?
The value was 70%.

How did the EC50 (Table 1) turn out when CCCc1sc(N2CCN(S(=O)(=O)c3ccc(C)cc3)CC2)nc1-c1ccccc1 [Compound 4] was run?
The EC50 was 203 nM.

And the “% I (percentage inhibition)” value (Table 1)?
The value was 61%.

How did the EC50 (Table 1) turn out when COc1cccc(-c2csc(N3CCN(S(=O)(=O)c4ccc(F)cc4)CC3)n2)c1 [Compound 5] was run?
Its EC50 is 216 nM.

What about the “% I (percentage inhibition)” value (Table 1) of the same molecule?
Its value is 90%.

Which results are given for O=S(=O)(c1ccc(Cl)cc1)N1CCN(c2nc(-c3ccc(F)cc3)cs2)CC1 [Compound 6]?
EC50 (Table 1): 300 nM; % I (percentage inhibition) (Table 1): 88%

What does the source list for O=S(=O)(c1ccc(Br)cc1)N1CCN(c2nc(-c3ccc(F)cc3)cs2)CC1 [Compound 7]?
EC50 (Table 1): 327 nM; % I (percentage inhibition) (Table 1): 94%

How did the EC50 (Table 1) turn out when O=S(=O)(C1CCCCC1Br)N1CCN(c2nc(-c3ccc(F)cc3)cs2)CC1 (stereo not shown) [Compound 8] was run?
Its EC50 is 568 nM.

What about the “% I (percentage inhibition)” value (Table 1) of the same molecule?
Its value is 88%.

O=S(=O)(c1ccc(F)cc1)N1CCN(c2nc(-c3ccc(F)cc3)cs2)CC1 [Compound 9] was tested. Which EC50 (Table 1) did it give?
Its EC50 is 833 nM.

What about the “% I (percentage inhibition)” value (Table 1) of the same molecule?
Its value is 81%.

For COc1ccc(S(=O)(=O)N2CCN(c3nc(Cc4cccs4)cs3)CC2)cc1 [Compound 10, 1-(4-methoxyphenylsulfonyl)-4-(4-(thiophen-2-ylmethyl)thiazol-2-yl)piperazine], which EC50 (Table 2) is on record?
Its EC50 is 12 nM.

And the “% inh. (percentage inhibition)” value (Table 2)?
The value was 93%.

How did the EC50 (Table 2) turn out when COc1ccc(S(=O)(=O)N2CCN(c3nc(Cc4cccc(C#N)c4)cs3)CC2)cc1 [Compound 12, 3-((2-(4-(4-methoxyphenylsulfonyl)piperazin-1-yl)thiazol-4-yl)methyl)benzonitrile] was run?
The EC50 was 3.2 nM.

And the “% inh. (percentage inhibition)” value (Table 2)?
Its value is 66%.

Which results are given for COc1ccc(S(=O)(=O)N2CCN(c3nc(Cc4cccc(F)c4)cs3)CC2)cc1 [Compound 13, 1-(4-(3-fluorobenzyl)thiazol-2-yl)-4-(4-methoxyphenylsulfonyl)piperazine]?
EC50 (Table 2): 11.5 nM; % inh. (percentage inhibition) (Table 2): 92%

For COc1ccc(Cc2csc(N3CCN(S(=O)(=O)c4ccc(OC)cc4)CC3)n2)cc1 [Compound 14, 1-(4-(4-methoxybenzyl)thiazol-2-yl)-4-(4-methoxyphenylsulfonyl)piperazine], which EC50 (Table 2) is on record?
The EC50 was 46.6 nM.

What about the “% inh. (percentage inhibition)” value (Table 2) of the same molecule?
Its value is 90%.

How did the EC50 (Table 2) turn out when COc1ccc(S(=O)(=O)N2CCN(c3nc(Cc4ccccc4OC)cs3)CC2)cc1 [Compound 15, 1-(4-(2-methoxybenzyl)thiazol-2-yl)-4-(4-methoxyphenylsulfonyl)piperazine] was run?
The EC50 was 17 nM.

And the “% inh. (percentage inhibition)” value (Table 2)?
Its value is 71%.

COc1cccc(Cc2csc(N3CCN(S(=O)(=O)c4ccccc4OC)CC3)n2)c1 [Compound 16, 1-(4-(3-methoxybenzyl)thiazol-2-yl)-4-(2-methoxyphenylsulfonyl)piperazine] was tested. Which EC50 (Table 2) did it give?
The EC50 was 3590 nM.

And the “% inh. (percentage inhibition)” value (Table 2)?
Its value is 76%.

For COc1cccc(Cc2csc(N3CCN(S(=O)(=O)c4cccc(OC)c4)CC3)n2)c1 [Compound 17, 1-(4-(3-methoxybenzyl)thiazol-2-yl)-4-(3-methoxyphenylsulfonyl)piperazine], which EC50 (Table 2) is on record?
Its EC50 is 4360 nM.

What about the “% inh. (percentage inhibition)” value (Table 2) of the same molecule?
Its value is 130%.

For COc1ccc(S(=O)(=O)N2CCN(c3nc(Cc4ccc5c(c4)OCO5)cs3)CC2)cc1 [Compound 18, 1-(4-(benzo[d][1,3]dioxol-5-ylmethyl)thiazol-2-yl)-4-(4-methoxyphenylsulfonyl)piperazine], which EC50 (Table 2) is on record?
Its EC50 is 22.8 nM.

What about the “% inh. (percentage inhibition)” value (Table 2) of the same molecule?
The value was 19%.

Which EC50 (Table 2) does the source give for COc1cccc(Cc2csc(N3CCN(S(=O)(=O)c4ccc5c(c4)OCO5)CC3)n2)c1 [Compound 19, 1-(4-(3-methoxybenzyl)thiazol-2-yl)-4-(benzo[d][1,3]dioxol-5-ylsulfonyl)piperazine] here?
The EC50 was 251 nM.

And the “% inh. (percentage inhibition)” value (Table 2)?
Its value is 84%.

Which results are given for COc1cccc(Cc2csc(N3CCN(S(=O)(=O)c4cccnc4)CC3)n2)c1 [Compound 20, 1-(4-(3-methoxybenzyl)thiazol-2-yl)-4-(pyridin-3-ylsulfonyl)piperazine]?
EC50 (Table 2): 1720 nM; % inh. (percentage inhibition) (Table 2): 76%

For COc1cccc(Cc2csc(N3CCN(S(=O)(=O)c4ccccn4)CC3)n2)c1 [Compound 21, 1-(4-(3-methoxybenzyl)thiazol-2-yl)-4-(pyridin-2-ylsulfonyl)piperazine], which EC50 (Table 2) is on record?
The EC50 was 2440 nM.

And the “% inh. (percentage inhibition)” value (Table 2)?
The value was 116%.

Which EC50 (Table 2) does the source give for COc1cccc(Cc2csc(N3CCN(S(=O)(=O)c4ccsc4)CC3)n2)c1 [Compound 22, 1-(4-(3-methoxybenzyl)thiazol-2-yl)-4-(thiophen-3-ylsulfonyl)piperazine] here?
Its EC50 is 1000 nM.

And the “% inh. (percentage inhibition)” value (Table 2)?
The value was 89%.

For COc1cccc(Cc2csc(N3CCN(S(=O)(=O)c4c(C)n[nH]c4C)CC3)n2)c1 [Compound 23, 1-(4-(3-methoxybenzyl)thiazol-2-yl)-4-(3,5-dimethyl-1H-pyrazol-4-ylsulfonyl)piperazine], which EC50 (Table 2) is on record?
The EC50 was 1290 nM.

What about the “% inh. (percentage inhibition)” value (Table 2) of the same molecule?
Its value is 95%.

COc1cccc(Cc2csc(N3CCN(S(=O)(=O)c4cccc5c4ccn5C)CC3)n2)c1 [Compound 24, 4-(4-(4-(3-methoxybenzyl)thiazol-2-yl)piperazin-1-ylsulfonyl)-1-methyl-1H-indole] was tested. Which EC50 (Table 2) did it give?
Its EC50 is 1170 nM.

What about the “% inh. (percentage inhibition)” value (Table 2) of the same molecule?
Its value is 82%.

How did the EC50 (Table 2) turn out when COc1cccc(Cc2csc(N3CCN(S(=O)(=O)c4cn(C)cn4)CC3)n2)c1 [Compound 26, 1-(4-(3-methoxybenzyl)thiazol-2-yl)-4-(1-methyl-1H-imidazol-4-ylsulfonyl)piperazine] was run?
Its EC50 is 870 nM.

And the “% inh. (percentage inhibition)” value (Table 2)?
Its value is 87%.

For COc1cccc(Cc2csc(N3CCN(S(=O)(=O)c4ccc(NC(C)=O)cc4)CC3)n2)c1 [Compound 27, N-(4-(4-(4-(3-methoxybenzyl)thiazol-2-yl)piperazin-1-ylsulfonyl)phenyl)acetamide], which EC50 (Table 2) is on record?
The EC50 was 250 nM.

And the “% inh. (percentage inhibition)” value (Table 2)?
Its value is 91%.

Which results are given for COc1cccc(Cc2csc(N3CCN(S(=O)(=O)c4ccc(C)cc4)CC3)n2)c1 [Compound 28, 1-(4-(3-methoxybenzyl)thiazol-2-yl)-4-tosylpiperazine]?
EC50 (Table 2): 1890 nM; % inh. (percentage inhibition) (Table 2): 165%

Which results are given for COc1cccc(Cc2csc(N3CCN(S(=O)(=O)c4ccc(C#N)cc4)CC3)n2)c1 [Compound 29, 4-(4-(4-(3-methoxybenzyl)thiazol-2-yl)piperazin-1-ylsulfonyl)benzonitrile]?
EC50 (Table 2): 1270 nM; % inh. (percentage inhibition) (Table 2): 42%

With COc1cccc(Cc2csc(N3CCN(S(=O)(=O)c4ccc(F)cc4)CC3)n2)c1 [Compound 30, 1-(4-(3-methoxybenzyl)thiazol-2-yl)-4-(4-fluorophenylsulfonyl)piperazine] as the molecule, how does the EC50 (Table 2) read?
The EC50 was 405 nM.

And the “% inh. (percentage inhibition)” value (Table 2)?
The value was 98%.

With COc1ccc(S(=O)(=O)N2CCC(c3nc(Cc4cccc(OC)c4)cs3)CC2)cc1 [Compound 31, 4-(4-(3-methoxybenzyl)thiazol-2-yl)-1-(4-methoxyphenylsulfonyl)piperidine] as the molecule, how does the EC50 (Table 2) read?
The EC50 was 6.6 nM.

What about the “% inh. (percentage inhibition)” value (Table 2) of the same molecule?
Its value is 66%.

How did the EC50 (Table 2) turn out when COc1ccc(S(=O)(=O)N2CCN(Cc3nc(Cc4cccc(OC)c4)cs3)CC2)cc1 [Compound 32, 1-((4-(3-methoxybenzyl)thiazol-2-yl)methyl)-4-(4-methoxyphenylsulfonyl)piperazine] was run?
The EC50 was 159 nM.

What about the “% inh. (percentage inhibition)” value (Table 2) of the same molecule?
The value was 95%.
